Results taken from patent publication US20250270199A1, “THIAZOLE DERIVATIVES AND METHODS OF USING THE SAME” (Arkansas State University - Jonesboro, priority 2022, published 2025).
In brackets after ≈: the same amount, converted by molar mass. Like-named read-outs stand apart in the source and are kept apart here.

Legend:
[1] = system: S. epidermidis ATCC 700296 (Se); test: MIC, broth microdilution, Se; type: cell-based; conditions: Staphylococcus epidermidis, ATCC700296; Table 2, HTM series; read-out: Minimum inhibitory concentration (MIC) Se
Method: (§1) The broth microdilution method was utilized to determine MIC values of novel thiazole derivatives against different clinically important Gram-positive bacteria according to the guidelines outlined by the Clinical and Laboratory Standards Institute (CLSI) as reported in our recent papers.^1-5 The starting concentration of compounds for MIC determination was 64 μg/mL serially diluted down the wells and the MIC values were recorded in duplicates in three independent experiments on different days.

[2] = system: S. aureus ATCC 33591 (Sa 91); test: MIC, broth microdilution, Sa 91; type: cell-based; conditions: Staphylococcus aureus, ATCC33591; Table 2, HTM series; read-out: Minimum inhibitory concentration (MIC) Sa 91
Method: as §1

[3] = system: S. aureus ATCC BAA-2312 (Sa 12); test: MIC, broth microdilution, Sa 12; type: cell-based; conditions: Staphylococcus aureus, ATCCBAA2312; Table 2, HTM series; read-out: Minimum inhibitory concentration (MIC) Sa 12
Method: as §1

[4] = system: S. aureus ATCC 25923 (Sa 23); test: MIC, broth microdilution, Sa 23; type: cell-based; conditions: Staphylococcus aureus, ATCC25923, Table 2, HTM series; read-out: Minimum inhibitory concentration (MIC) Sa 23
Method: as §1

[5] = system: E. faecalis ATCC 51299 (Efs 99); test: MIC, broth microdilution, Efs 99; type: cell-based; conditions: for MIC: Enterococcus faecalis, ATCC51299, read-out: Minimum inhibitory concentration (MIC) Efs 99
Method: as §1

[6] = system: S. aureus ATCC 700699 (Sa 99); test: MIC, broth microdilution, Sa 99; type: cell-based; conditions: Staphylococcus aureus, ATCC700699, Table 2, HTM series; read-out: Minimum inhibitory concentration (MIC) Sa 99
Method: as §1

[7] = system: Sa UAMS-1 MRSA ATCC 49230 (Sa UAMS); test: MIC, broth microdilution, Sa UAMS; type: cell-based, S. aureus; conditions: Staphylococcus aureus; Table 2, HTM series; read-out: Minimum inhibitory concentration (MIC) Sa UAMS-1
Method: as §1

[8] = system: E. faecium ATCC 700221 (Efm 21); test: MIC, broth microdilution, Efm 21; type: cell-based; conditions: Enterococcus faecium, read-out: Minimum inhibitory concentration (MIC) Efm 21
Method: as §1

[9] = system: S. aureus ATCC 33592 (Sa 92); test: MIC, broth microdilution, Sa 92; type: cell-based; conditions: Staphylococcus aureus, ATCC33592; Table 2, HTM series; read-out: Minimum inhibitory concentration (MIC) Sa 92
Method: as §1

[10] = system: S. aureus subsp. aureus Rosenbach ATCC 25904 (SA Newman); test: MIC, broth microdilution, SA Newman; type: cell-based; conditions: Staphylococcus aureus; Table 2, HTM series; read-out: Minimum inhibitory concentration (MIC) Sa Newman
Method: as §1

[11] = system: S. aureus subsp. aureus Rosenbach BAA-1717 (Sa USA 300); test: MIC, broth microdilution, Sa USA 300; type: cell-based; conditions: Staphylococcus aureus; Table 2, HTM series; read-out: Minimum inhibitory concentration (MIC) Sa USA 300
Method: as §1

[12] = system: E. faecalis ATCC 29212 (Efs 12); test: MIC, broth microdilution, Efs 12; type: cell-based; conditions: Enterococcus faecalis, ATCC29212, Table 2, HTM series; read-out: Minimum inhibitory concentration (MIC) Efs 12
Method: as §1

[13] = ATCC700221, Table 2, HTM series

Structure (SMILES)	MIC [1] [µg/mL]	MIC [2] [µg/mL]	MIC [3] [µg/mL]	MIC [4] [µg/mL]	MIC ([5]; Table 2, HTM series) [µg/mL]	MIC [6] [µg/mL]	MIC [7] [µg/mL]	MIC [8, 13] [µg/mL]	MIC [9] [µg/mL]	MIC [10] [µg/mL]	MIC [11] [µg/mL]	MIC [12] [µg/mL]	MIC ([5]; Table 1, HT series) [µg/mL]	Minimum inhibitory concentration (MIC) Efs 99 ([5]; Table 2, HTM series) [µg/mL]	MIC ([8]; ATCC700221, Table 1, HT series) [µg/mL]
Oc1ccc(-c2csc(-c3cc(Cl)cc(Cl)c3)n2)cc1 [Compound 43, 4-(2-(3,5-dichlorophenyl)thiazol-4-yl)phenol]	1 (≈ 3.1 µM)	1 (≈ 3.1 µM)	1 (≈ 3.1 µM)	1 (≈ 3.1 µM)	2 (≈ 6.21 µM)	1 (≈ 3.1 µM)	1 (≈ 3.1 µM)	2 (≈ 6.21 µM)	1 (≈ 3.1 µM)	1 (≈ 3.1 µM)	1 (≈ 3.1 µM)	2 (≈ 6.21 µM)	–	–	–
Oc1ccc(-c2csc(-c3ccc(C(F)(F)F)cc3)n2)cc1O [Compound 47, 4-{2-[4-(trifluoromethyl)phenyl]-1,3-thiazol-4-yl}benzene-1,2-diol]	8 (≈ 23.7 µM)	8 (≈ 23.7 µM)	4 (≈ 11.9 µM)	4 (≈ 11.9 µM)	8 (≈ 23.7 µM)	8 (≈ 23.7 µM)	8 (≈ 23.7 µM)	8 (≈ 23.7 µM)	8 (≈ 23.7 µM)	8 (≈ 23.7 µM)	8 (≈ 23.7 µM)	16 (≈ 47.4 µM)	–	–	–
Oc1ccc(-c2csc(Nc3cc(C(F)(F)F)cc(C(F)(F)F)c3)n2)cc1O [Compound 58, 4-(2-((3,5-bis(trifluoromethyl)phenyl)amino)thiazol-4-yl)benzene-1,2-diol]	4 (≈ 9.52 µM)	4 (≈ 9.52 µM)	4 (≈ 9.52 µM)	4 (≈ 9.52 µM)	4 (≈ 9.52 µM)	4 (≈ 9.52 µM)	4 (≈ 9.52 µM)	4 (≈ 9.52 µM)	4 (≈ 9.52 µM)	4 (≈ 9.52 µM)	4 (≈ 9.52 µM)	4 (≈ 9.52 µM)	–	–	–
Oc1ccc(-c2csc(Nc3cc(C(F)(F)F)cc(C(F)(F)F)c3)n2)cc1 [Compound 59, 4-(2-((3,5-bis(trifluoromethyl)phenyl)amino)thiazol-4-yl)phenol]	1 (≈ 2.47 µM)	1 (≈ 2.47 µM)	1 (≈ 2.47 µM)	1 (≈ 2.47 µM)	1 (≈ 2.47 µM)	1 (≈ 2.47 µM)	2 (≈ 4.95 µM)	1 (≈ 2.47 µM)	1 (≈ 2.47 µM)	1 (≈ 2.47 µM)	1 (≈ 2.47 µM)	1 (≈ 2.47 µM)	–	–	–
Oc1ccc(-c2csc(-c3ccc(Cl)c(Cl)c3)n2)cc1 [Compound 65, 4-(2-(3,4-dichlorophenyl)thiazol-4-yl)phenol]	1 (≈ 3.1 µM)	1 (≈ 3.1 µM)	1 (≈ 3.1 µM)	1 (≈ 3.1 µM)	2 (≈ 6.21 µM)	1 (≈ 3.1 µM)	2 (≈ 6.21 µM)	2 (≈ 6.21 µM)	1 (≈ 3.1 µM)	2 (≈ 6.21 µM)	1 (≈ 3.1 µM)	2 (≈ 6.21 µM)	–	–	–
Cc1ccc(Nc2nc(-c3ccc(O)cc3)cs2)cc1Cl [Compound 67, 4-(2-((3-chloro-4-methylphenyl)amino)thiazol-4-yl)phenol]	4 (≈ 12.6 µM)	8 (≈ 25.3 µM)	4 (≈ 12.6 µM)	4 (≈ 12.6 µM)	8 (≈ 25.3 µM)	4 (≈ 12.6 µM)	4 (≈ 12.6 µM)	4 (≈ 12.6 µM)	4 (≈ 12.6 µM)	4 (≈ 12.6 µM)	4 (≈ 12.6 µM)	8 (≈ 25.3 µM)	–	–	–
Oc1ccc(-c2csc(Nc3cc(Cl)c(Cl)cc3Cl)n2)cc1 [Compound 69, 4-(2-((2,4,5-trichlorophenyl)amino)thiazol-4-yl)phenol]	8 (≈ 21.5 µM)	1 (≈ 2.69 µM)	1 (≈ 2.69 µM)	1 (≈ 2.69 µM)	4 (≈ 10.8 µM)	1 (≈ 2.69 µM)	4 (≈ 10.8 µM)	4 (≈ 10.8 µM)	1 (≈ 2.69 µM)	4 (≈ 10.8 µM)	4 (≈ 10.8 µM)	4 (≈ 10.8 µM)	–	–	–
Oc1ccc(-c2csc(Nc3cc(Cl)ccc3Cl)n2)cc1 [Compound 73, 4-(2-((2,5-dichlorophenyl)amino)thiazol-4-yl)phenol]	4 (≈ 11.9 µM)	4 (≈ 11.9 µM)	4 (≈ 11.9 µM)	4 (≈ 11.9 µM)	8 (≈ 23.7 µM)	4 (≈ 11.9 µM)	4 (≈ 11.9 µM)	8 (≈ 23.7 µM)	4 (≈ 11.9 µM)	4 (≈ 11.9 µM)	4 (≈ 11.9 µM)	4 (≈ 11.9 µM)	–	–	–
CCCCCCCCCC(=O)N[C@@H](Cc1c[nH]c2ccccc12)C(=O)N[C@H](CC(N)=O)C(=O)N[C@@H](CC(=O)O)C(=O)N[C@@H]1C(=O)NCC(=O)N[C@@H](CCCN)C(=O)N[C@@H](CC(=O)O)C(=O)N[C@H](C)C(=O)N[C@@H](CC(=O)O)C(=O)NCC(=O)N[C@H](CO)C(=O)N[C@@H]([C@H](C)CC(=O)O)C(=O)N[C@@H](CC(=O)c2ccccc2N)C(=O)O[C@@H]1C [Dapt., Daptomycin, reference compound]	–	–	–	–	–	–	–	1 (≈ 0.617 µM)	–	–	–	–	1 (≈ 0.617 µM)	1 (≈ 0.617 µM)	4 (≈ 2.47 µM)
